Experiment [1] concerns HT-1080 cells expressing IDH1R132C. Put plainly: 2-HG production inhibitory activity using HT1080 cell. Format: cell-based, human. As to conditions: Homo sapiens, HT-1080; 2-HG production, HT1080 cells; read-out: Test Example 3 IC50. How it is done: Then, 100 μL of growth medium B was added to each well, further 25 μL of a solution of each compound diluted to a predetermined concentration with growth medium B was added to each well, and the cells were incubated at 37° C. for 2 days under 5% CO2. […] Then, 150 μL of ultrapure water was further added to each well, and the mixture was stirred by pipetting and stored at −20° C.
The preserved solutions were thawed at room temperature.

For experiment [2], the system named is HT1080 xenografted mice (IDH1R132C). As to the kind of experiment: 2-HG production inhibitory activity using HT1080 xenografted mice. Format: in vivo, mouse. As to conditions: Mus musculus, HT-1080, po, 6 h, 2-HG production, HT1080 xenografted mice; read-out: Test Example 5 Ratio (%). A digest of the protocol: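 Mice bearing HT1080 tumors received 75 mg/kg compound by oral gavage twice a day, three doses in total, at 10 mL/kg; vehicle-dosed mice were negative controls. Tumors were collected 6 h after the final dose, frozen, homogenized in methanol and centrifuged, and 2-HG was measured in the extracts.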

The target of experiment [3] is IDH1R132C (Homo sapiens (Human), UniProt O75874, R132C). As to the kind of experiment: Inhibitory activity against IDH1R132C enzyme (NADPH detection, WST-8). The format is biochemical. As to conditions: 10 nM, residual NADPH detected with WST-8, read-out: Test Example 1 IDH1 R132C IC50.
IDH1R132C, sequence (O75874 whole entry R132C): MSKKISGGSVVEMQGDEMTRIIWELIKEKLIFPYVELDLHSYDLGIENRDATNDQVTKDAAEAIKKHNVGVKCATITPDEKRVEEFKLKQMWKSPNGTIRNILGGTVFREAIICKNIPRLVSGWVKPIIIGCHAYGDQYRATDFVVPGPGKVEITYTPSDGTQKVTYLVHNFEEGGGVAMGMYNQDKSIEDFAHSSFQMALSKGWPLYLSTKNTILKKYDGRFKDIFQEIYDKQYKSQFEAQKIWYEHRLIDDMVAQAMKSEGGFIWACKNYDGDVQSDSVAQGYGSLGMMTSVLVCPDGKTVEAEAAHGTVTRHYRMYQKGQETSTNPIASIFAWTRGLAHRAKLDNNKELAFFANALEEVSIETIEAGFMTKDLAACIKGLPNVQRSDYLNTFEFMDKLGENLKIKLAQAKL

As to `COC1(c2onc(-c3c(Cl)cc(Cl)cc3Cl)c2C(=O)n2cc3c4c(cccc42)/C(=C/C(=O)O)CC3)CCC1` [Example 12, (2E)-[1-{[5-(1-Methoxycyclobutyl)-3-(2,4,6-trichlorophenyl)-1,2-oxazol-4-yl]carbonyl}-3,4-dihydrobenzo[cd]indol-5(1H)-ylidene]ethanoic acid], the IC50 in experiment [1] came out at 24 nM; in experiment [3], 144 nM. The response vs control in vivo at 75 mg/kg in experiment [2] worked out at 7%.
On the same counts, the results for `C=CC(=O)N1CCC(c2onc(-c3cc(F)c(Cl)cc3Cl)c2C(=O)n2cc3c4c(cccc42)/C(=C/C(=O)O)CC3)CC1` [Example 128] are 3 nM, 91 nM and 1%.
As to `CCc1cn(C(=O)c2c(-c3c(Cl)cc(Cl)cc3Cl)noc2C(C)(C)F)c2cccc(/C=C/C(=O)O)c12` [Example 65, (2E)-3-(3-Ethyl-1-{[5-(2-fluoropropan-2-yl)-3-(2,4,6-trichlorophenyl)-1,2-oxazol-4-yl]carbonyl}-1H-indol-4-yl)prop-2-enoic acid], the values for the IC50 in experiment [1] and in experiment [3] were 93 nM and 198 nM, respectively. Moreover, in experiment [2], the response vs control in vivo at 75 mg/kg was 65%.
`Cc1cn(C(=O)c2c(-c3c(F)cccc3Cl)noc2C(C)(C)F)c2cccc(/C=C/C(=O)O)c12` [Example 52, (2E)-3-(1-{[3-(2-Chloro-6-fluorophenyl)-5-(2-fluoropropan-2-yl)-1,2-oxazol-4-yl]carbonyl}-3-methyl-1H-indol-4-yl)prop-2-enoic acid]: the figures for the IC50 in experiment [1] and in experiment [3] were 263 nM and 136 nM, respectively. Further, the response vs control in vivo at 75 mg/kg in experiment [2] turned out to be 71%.
As to `CC(C)(C)c1onc(-c2c(Cl)cc(Cl)cc2Cl)c1C(=O)n1cc(C(F)F)c2c(/C=C/C(=O)O)cccc21` [Example 72, (2E)-3-(1-{[5-(tert-Butyl)-3-(2,4,6-trichlorophenyl)-1,2-oxazol-4-yl]carbonyl}-3-(difluoromethyl)-1H-indol-4-yl)prop-2-enoic acid], the IC50 in experiment [1] was 59 nM; in experiment [3], 201 nM. Also, the response vs control in vivo at 75 mg/kg in experiment [2] stood at 46%.
On the same counts, the results for `CC(C)(C)c1onc(-c2c(F)cc(Cl)cc2Cl)c1C(=O)n1ccc2c(/C=C/C(=O)O)cccc21` [Example 35, (2E)-3-(1-{[5-(tert-Butyl)-3-(2,4-dichloro-6-fluorophenyl)-1,2-oxazol-4-yl]carbonyl}-1H-indol-4-yl)prop-2-enoic acid] are 244 nM, 161 nM and 64%.
As for `C=CC(=O)N1CCC(c2onc(-c3c(Cl)cc(F)cc3Cl)c2C(=O)n2cc(C)c3c(/C=C/C(=O)O)cccc32)CC1` [Example 112], the values for the IC50 in experiment [1] and in experiment [3] were 12 nM and 115 nM, respectively. Besides, in experiment [2], the response vs control in vivo at 75 mg/kg came out at 15%.
On the same counts, the results for `C=CC(=O)N1CCC(c2onc(-c3c(Cl)cccc3Cl)c2C(=O)n2cc(C)c3c(/C=C/C(=O)O)cccc32)CC1` [Example 108] are 38 nM, 149 nM and 58%.
On the same counts, the results for `C=CC(=O)N1CC2(CC2)N(c2onc(-c3c(Cl)cccc3OC)c2C(=O)n2ccc3c(/C=C/C(=O)O)cccc32)C[C@H]1CC` [Example 161, (2E)-3-[1-({5-{(6R)7-Acryloyl-6-ethyl-4,7-diazaspiro[2.5]oct-4-yl]-3-(2-chloro-6-methoxyphenyl)-1,2-oxazol-4-yl}carbonyl)-1H-indol-4-yl]prop-2-enoic acid] are 121 nM, 98 nM and 72%.
On the same counts, the results for `C=CC(=O)N1CC2(CC2)N(c2onc(-c3c(Cl)cccc3Cl)c2C(=O)n2ccc3c(/C=C/C(=O)O)cccc32)C[C@H]1C` [Example 155, (2E)-3-[1-({5-[(6R)7-Acryloyl-6-methyl-4,7-diazaspiro[2.5]oct-4-yl]-3-(2,6-dichlorophenyl)-1,2-oxazol-4-yl}carbonyl)-1H-indol-4-yl]prop-2-enoic acid] are 55 nM, 122 nM and 41%.
On to `C=CC(=O)N1C[C@@H](C)N(c2onc(-c3c(Cl)cccc3Cl)c2C(=O)n2ccc3c(/C=C/C(=O)O)cccc32)C2(CC2)C1` [Example 159, (2E)-3-[1-({5-[(5R)7-Acryloyl-5-methyl-4,7-diazaspiro[2.5]oct-4-yl]-3-(2,6-dichlorophenyl)-1,2-oxazol-4-yl}carbonyl)-1H-indol-4-yl]prop-2-enoic acid], for which the figures for the IC50 in experiment [1] and in experiment [3] were 138 nM and 84 nM, respectively. In experiment [2], the response vs control in vivo at 75 mg/kg was found to be 30%.
On the same counts, the results for `Cc1cn(C(=O)c2c(-c3c(Cl)cc(Cl)cc3Cl)noc2C2(C)CC2)c2cccc(/C=C/C(=O)O)c12` [Example 43, (2E)-3-(3-Methyl-1-{[5-(1-methylcyclopropyl)-3-(2,4,6-trichlorophenyl)-1,2-oxazol-4-yl]carbonyl}-1H-indol-4-yl)prop-2-enoic acid] are 63 nM, 139 nM and 54%.
Consider `C=CC(=O)N1CCN(c2onc(-c3c(Cl)cc(Cl)cc3Cl)c2C(=O)n2ccc3c(/C=C/C(=O)O)cccc32)C(C)C1` (stereo in doubt) [Example 146, (2E)-3-[1-({5-[(2R)-4-Acryloyl-2-methylpiperazin-1-yl]-3-(2,4,6-trichlorophenyl)-1,2-oxazol-4-yl}carbonyl)-1H-indol-4-yl]prop-2-enoic acid], for which the IC50 is 104 nM in experiment [1] and 144 nM in experiment [3]. Besides, in experiment [2], the response vs control in vivo at 75 mg/kg is 38%.
On the same counts, the results for `CC(C)(C)c1noc(-c2c(Cl)cc(Cl)cc2Cl)c1C(=O)n1ccc2c(/C=C/C(=O)O)cccc21` [Example 34, (2E)-3-(1-{[3-(tert-Butyl)-5-(2,4,6-trichlorophenyl)-1,2-oxazol-4-yl]carbonyl}-1H-indol-4-yl)prop-2-enoic acid] are 209 nM, 364 nM and 55%.
On the same counts, the results for `CC1(c2onc(-c3c(Cl)cc(Cl)cc3Cl)c2C(=O)n2ccc3c(/C=C/C(=O)O)cccc32)COC1` [Example 1, (2E)-3-(1-{[5-(3-Methyloxetan-3-yl)-3-(2,4,6-trichlorophenyl)-1,2-oxazol-4-yl]carbonyl}-1H-indol-4-yl)prop-2-enoic acid] are 33 nM, 56 nM and 21%.
On the same counts, the results for `Cc1cn(C(=O)c2c(-c3c(Cl)cc(Cl)cc3Cl)noc2C(C)(C)F)c2c(F)ccc(/C=C/C(=O)O)c12` [Example 50, (2E)-3-(7-Fluoro-1-{[5-(2-fluoropropan-2-yl)-3-(2,4,6-trichlorophenyl)-1,2-oxazol-4-yl]carbonyl}-3-methyl-1H-indol-4-yl)prop-2-enoic acid] are 173 nM, 104 nM and 84%.
Turning to `C/C=C/C(=O)N1CCC(c2onc(-c3c(Cl)cc(Cl)cc3Cl)c2C(=O)n2cc(C)c3c(/C=C/C(=O)O)cccc32)CC1` [Example 119], the IC50 in experiment [1] is 30 nM; in experiment [3], 190 nM. In addition, in experiment [2], the response vs control in vivo at 75 mg/kg turned out to be 12%.
On the same counts, the results for `CC(C)(F)c1onc(-c2c(F)cc(Cl)cc2Cl)c1C(=O)n1cc2c3c(cccc31)/C(=C/C(=O)O)CC2` [Example 16, (2E)-[1-{[3-(2,4-Dichloro-6-fluorophenyl)-5-(2-fluoropropan-2-yl)-1,2-oxazol-4-yl]carbonyl}-3,4-dihydrobenzo[cd]indol-5(1H)-ylidene]ethanoic acid] are 89 nM, 107 nM and 32%.
On the same counts, the results for `C=CC(=O)N1CCC(c2onc(-c3c(Cl)cc(Cl)cc3Cl)c2C(=O)n2cc(C)c3c(CCC(=O)O)cccc32)CC1` [Example 115] are 32 nM, 301 nM and 12%.
On the same counts, the results for `CC(C)(F)c1onc(-c2c(Cl)cc(Cl)cc2Cl)c1C(=O)n1ccc2c(/C=C/C(=O)O)cccc21` [Example 36, (2E)-3-(1-{[5-(2-Fluoropropan-2-yl)-3-(2,4,6-trichlorophenyl)-1,2-oxazol-4-yl]carbonyl}-1H-indol-4-yl)prop-2-enoic acid] are 170 nM, 109 nM and 43%.
For `CC(C)(F)c1onc(-c2c(Cl)cc(Cl)cc2Cl)c1C(=O)n1cc(Cl)c2c(/C=C/C(=O)O)cccc21` [Example 66, (2E)-3-(3-Chloro-1-{[5-(2-fluoropropan-2-yl)-3-(2,4,6-trichlorophenyl)-1,2-oxazol-4-yl]carbonyl}-1H-indol-4-yl)prop-2-enoic acid], the IC50 in experiment [1] amounted to 59 nM; in experiment [3], 122 nM. In addition, the response vs control in vivo at 75 mg/kg in experiment [2] came out at 49%.

By IC50 is commonly meant the concentration that inhibits the measured activity by half.
